The test concerns the target T1, Solute carrier family 12 member 5 (Homo sapiens, UniProt Q9H2X9).
T1 sequence (Q9H2X9 whole entry): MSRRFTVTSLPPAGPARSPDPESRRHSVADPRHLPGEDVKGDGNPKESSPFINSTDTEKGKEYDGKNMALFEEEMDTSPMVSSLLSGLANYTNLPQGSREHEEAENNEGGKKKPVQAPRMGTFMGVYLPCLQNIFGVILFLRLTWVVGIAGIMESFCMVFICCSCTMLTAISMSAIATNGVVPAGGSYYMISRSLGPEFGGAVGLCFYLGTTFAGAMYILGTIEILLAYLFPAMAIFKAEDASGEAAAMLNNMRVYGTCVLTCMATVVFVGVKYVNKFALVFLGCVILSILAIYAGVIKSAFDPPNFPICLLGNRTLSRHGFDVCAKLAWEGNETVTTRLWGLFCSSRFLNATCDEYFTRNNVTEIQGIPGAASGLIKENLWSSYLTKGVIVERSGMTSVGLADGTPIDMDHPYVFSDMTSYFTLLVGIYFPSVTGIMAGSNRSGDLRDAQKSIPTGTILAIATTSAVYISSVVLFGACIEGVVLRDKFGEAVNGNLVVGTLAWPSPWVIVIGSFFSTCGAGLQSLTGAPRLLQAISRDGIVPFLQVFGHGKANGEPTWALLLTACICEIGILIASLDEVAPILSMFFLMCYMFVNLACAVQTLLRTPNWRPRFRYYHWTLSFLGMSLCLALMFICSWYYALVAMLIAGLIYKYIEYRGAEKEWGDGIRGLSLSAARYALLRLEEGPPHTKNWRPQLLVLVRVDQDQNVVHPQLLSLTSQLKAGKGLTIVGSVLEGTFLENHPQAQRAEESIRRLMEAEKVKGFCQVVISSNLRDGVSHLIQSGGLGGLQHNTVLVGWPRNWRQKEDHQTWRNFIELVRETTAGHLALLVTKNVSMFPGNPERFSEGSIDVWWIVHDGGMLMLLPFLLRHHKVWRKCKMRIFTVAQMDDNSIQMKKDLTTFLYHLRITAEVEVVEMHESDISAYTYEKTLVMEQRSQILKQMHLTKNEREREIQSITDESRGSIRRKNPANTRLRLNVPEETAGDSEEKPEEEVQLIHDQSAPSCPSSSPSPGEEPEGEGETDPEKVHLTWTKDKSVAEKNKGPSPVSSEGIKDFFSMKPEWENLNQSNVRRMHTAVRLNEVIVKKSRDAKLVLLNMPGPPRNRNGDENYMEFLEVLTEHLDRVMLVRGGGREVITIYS
The test is described as follows: KCC2 cotransport modulators, dose response, cell-based, assay 2 (AID 1723).

[1] abbreviates: inactive by the depositor's call.

We go through 21 molecules from BindingDB's records for doi:10.7270/Q2PN942B (Vanderbilt Screening Center for GPCRs, Ion Channels and …, 2009).

By EC50 is commonly meant the concentration that produces a half-maximal response. Read a high EC50 as a less potent agent.

The structures appear in SMILES notation.

As for `Cc1[nH]n2c(=O)cc(C(C)C)nc2c1-c1ccccc1`, a half-maximal response (EC50) required 12.9 µM.

Molecule `O=[N+]([O-])c1ccc(-c2cn(-c3ccccc3F)c(=S)[nH]2)cc1` gave an EC50 of 0.548 µM. The molecule `S=c1nc(-c2ccc3c(c2)CCO3)cc[nH]1` displayed an EC50 of 8.12 µM. Regarding `S=C(NCCc1ccccc1)NN=Cc1cccc(Cl)c1Cl` [1-[(2,3-dichlorobenzylidene)amino]-3-phenethyl-thiourea], the EC50 was 11.2 µM.

Turning to `Fc1cccc(F)c1C=NNC(=S)Nc1cccnc1` [1-[(2,6-difluorobenzylidene)amino]-3-(3-pyridyl)thiourea], the EC50 turned out to be 14 µM.

`NC(=S)NN=C1C(=O)N(Cc2ccc(F)cc2)c2ccccc21` [1-[(Z)-[1-[(4-fluorophenyl)methyl]-2-oxidanylidene-indol-3-ylidene]amino]thiourea] yielded an EC50 of 2.29 µM.

Under setting [1], `Cc1ccc(Cn2c(SCC(=O)Nc3cc(C)on3)nc3ccccc3c2=O)cc1` [2-[[4-keto-3-(4-methylbenzyl)quinazolin-2-yl]thio]-N-(5-methylisoxazol-3-yl)acetamide] showed an EC50 of 138 µM.

In turn, `N=C1SCC(=O)N1c1ncc(Cc2cccc(Cl)c2)s1` [2-azanylidene-3-[5-[(3-chlorophenyl)methyl]-1,3-thiazol-2-yl]-1,3-thiazolidin-4-one] registered an EC50 of 2.57 µM. In turn, `O=C(NC(=S)Nc1nc(-c2cccc([N+](=O)[O-])c2)cs1)c1ccccc1Cl` [2-chloranyl-N-[[4-(3-nitrophenyl)-1,3-thiazol-2-yl]carbamothioyl]benzamide] showed an EC50 of 244 µM. Take `CCOc1ccc2nc(Sc3cc(O)n(-c4cccc(OC)c4)c3O)sc2c1` [3-(6-Ethoxy-benzothiazol-2-ylsulfanyl)-1-(3-methoxy-phenyl)-pyrrolidine-2,5-dione]: the EC50 was 14.2 µM. Same read-out and setting: with `COC(=O)c1sccc1NC(=S)OC` [3-(methoxycarbothioylamino)thiophene-2-carboxylic acid methyl ester] the figure was 1.74 µM. On to `COC(=O)[C@@H](NC(=O)O[C@@H]1C(=O)c2ccc(OC)cc2O[C@H]1c1cccc(C(F)(F)F)c1)C(C)C` [(2S)-2-[[(2S,3S)-4-keto-7-methoxy-2-[3-(trifluoromethyl)phenyl]chroman-3-yl]oxycarbonylamino]-3-methyl-butyric acid methyl ester], for which the midpoint of the response, the EC50, lay at 0.996 µM.

On to `CCOc1[nH]n(-c2ccccc2)c(=O)c1C=Nc1ccc(F)cc1F` [(4E)-4-[[[2,4-bis(fluoranyl)phenyl]amino]methylidene]-5-ethoxy-2-phenyl-pyrazol-3-one], for which the EC50 was 5.86 µM. As to `Oc1ccccc1CN=Nc1nc2ccccc2o1` [(6E)-6-[(1,3-benzoxazol-2-ylhydrazo)methylidene]-1-cyclohexa-2,4-dienone], the EC50 is 45.3 µM. Under setting [1], `Cc1noc(/C=C/N(C)C)c1S(=O)(=O)N(C)CC(=O)NC1CCCCC1` [MLS000047204] gave a concentration giving a half-maximal response (EC50) of 0.61 µM. Regarding `Cc1nn(-c2nc3ccccc3[nH]2)c(N)c1-c1ccccc1` [MLS000063763], the 50% effective concentration (EC50) is 1.86 µM.

`O=[N+]([O-])c1ccccc1C=C[CH+][N-]n1c(-c2ccc(Cl)cc2)n[nH]c1=S` [MLS000555506]: the midpoint of the response, the EC50, lay at 53.1 µM. For `COc1cc(NC(=S)NC(=O)c2ccco2)ccc1NC(=O)C(C)C` [MLS000672338], a half-maximal effect (EC50) was put at 14.1 µM. Regarding `CC(=O)c1cccc(NC(=S)NC(=O)c2ccc(C)cc2)c1` [MLS000687464], a half-maximal effect (EC50) was put at 1.86 µM.

For `CNc1ccc2oc(C[C@H]3O[C@@]4(CC[C@H]3C)O[C@H]([C@H](C)C(=O)c3ccc[nH]3)[C@H](C)C[C@H]4C)nc2c1C(=O)O` [MLS001056783], the response was half-maximal at 15.4 µM (EC50). `O=c1c2ccccc2[nH]c(=S)n1CCN1CCC(=C(c2ccc(F)cc2)c2ccc(F)cc2)CC1` [SMR000058550] registered an EC50 of 25.5 µM.
